In patent publication US7323570B2, “Farnesyltransferase inhibitors” (Abbott Laboratories, priority 2000, dated 2008):

Biological target: T1, farnesyltransferase (Rattus norvegicus, UniProt Q02293+Q04631)
T1 construct: The enzyme can be purified according to Cell, 62: 81-88 (1990), utilizing steps one, two, and three; from tissue; host or cells: rat brain
Test: Inhibition of farnesyltransferase (3H-farnesyldiphosphate / H-Ras filter assay)
Format: biochemical
Settings: 37° C., 30 minutes; for inhibition at 0.1 µM: test compound 10^−7M
From the text: The ability of the compounds of the present invention to inhibit farnesyltransferase can be measured according to the method described in J. Biol. Chem., 266: 14603 (1991) or J. Biol. Chem., 270:660-664 (1995). Procedures for determination of the inhibition of farnesylation of the oncogene protein Ras are described in J. Biol. Chem., 266:15575-15578 (1991) and U.S. Pat. No. 5,245,061. Inhibition of rat brain farnesyltransferase can also be measured in vitro using an Amersham Life Science commercial scintillation proximity assay kit and substituting a biotin-K Ras B fragment (0.1 μM final concentration) for the biotin-lamin substrate provided by Amersham. The enzyme can be purified according to Cell, 62: 81-88 (1990), utilizing steps one, two, and three. […] The percent inhibition of the farnesylation caused by the compounds of the present invention (at 10^−6 M) compared to an uninhibited control sample can be evaluated in the same Amersham test system.
The mixture was brought to 37° C., treated with enzyme, incubated for 30 minutes, treated with 1 M HCl/ethanol (1 mL) to stop the reaction, stirred for 15 minutes at room temperature, diluted with ethanol (2 mL), filtered through a 2.5 cm glass microfiber filter (Whatman) with ethanol rinses (4×2 mL). The glass filter was transferred to a scintillation vial and treated with scintillation fluid (5 mL). The radioisotope retained on the glass fiber filter was counted and reflected the activity of the enzyme.

T1 sequence (Q02293 whole entry, one chain of several): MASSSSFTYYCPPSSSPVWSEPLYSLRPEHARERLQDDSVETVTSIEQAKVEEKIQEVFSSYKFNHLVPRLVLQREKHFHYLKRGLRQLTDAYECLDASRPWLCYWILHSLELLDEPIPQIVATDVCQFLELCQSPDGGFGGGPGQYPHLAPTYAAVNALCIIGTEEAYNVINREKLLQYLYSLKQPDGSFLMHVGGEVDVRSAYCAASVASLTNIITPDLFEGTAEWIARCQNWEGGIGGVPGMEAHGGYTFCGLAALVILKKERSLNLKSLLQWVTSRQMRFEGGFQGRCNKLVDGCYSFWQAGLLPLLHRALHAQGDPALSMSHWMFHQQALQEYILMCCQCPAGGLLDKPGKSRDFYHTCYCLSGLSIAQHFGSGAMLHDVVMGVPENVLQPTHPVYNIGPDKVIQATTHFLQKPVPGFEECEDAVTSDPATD

Row | SMILES | inhibition at 0.1 µM [%] | inhibition at 0.01 µM (test compound 10^−8M) [%]
1 | Cn1cncc1C(OCc1ccc(Cl)cc1-c1ccccc1)c1ccc(C#N)cc1 (stereo not drawn) [Example 2, 4-(((5-chloro(1,1′-biphenyl)-2-yl)methoxy)(1-methyl-1H-imidazol-5-yl)methyl)benzonitrile] | > 66 | –
2 | Cn1cncc1C(OCc1c(-c2cccc(Cl)c2)cc(C#N)c(=O)n1C)c1ccc(Cl)cc1 (stereo not drawn) [Example 43, 5-(3-chlorophenyl)-6-(((4-chlorophenyl)(1-methyl-1H-imidazol-5-yl)methoxy)methyl)-1-methyl-2-oxo-1,2-dihydro-3-pyridinecarbonitrile] | > 81 | –
3 | COc1cccc(-c2cc(C#N)ccc2OCC(F)(c2ccc(C#N)cc2)c2cncn2C)c1 (stereo not drawn) [Example 58, 6-(2-(4-cyanophenyl)-2-fluoro-2-(1-methyl-1H-imidazol-5-yl)ethoxy)-3′-methoxy-1,1′-biphenyl-3-carbonitrile] | – | 96
